Measured values reported in patent publication US20240376090A1, “ISOXAZOLE DERIVATIVES AS MODULATORS OF THE 5-HT2A SEROTONIN RECEPTOR USEFUL FOR THE TREATMENT OF DISORDERED RELATED THERETO” (Arena Pharmaceuticals, Inc., priority 2020, published 2024).
pKi: −log10 of the molar value.

Biological target: 5-HT2A receptor (Homo sapiens (Human), UniProt P28223)
Experiment: Radioligand binding assay ([3H]5-HT competition), 5-HT2A
Conditions: [3H]5-HT radioligand, membranes of HEK293 cells expressing recombinant 5-HT2A; Ki from IC50 by Cheng-Prusoff; read-out: 5-HT2A serotonin binding Ki value
Protocol: Competition binding experiments consisted of addition of 5 μL of serially diluted test compound, 50 μL of radioligand stock diluted in Assay Buffer (20 mM HEPES, pH 7.4, 10 mM MgCl2), and 145 μL of diluted membrane expressing the receptor of interest to 96-well microtiter plates, which were then incubated for one hour at room temperature. Assay incubations were terminated by rapid filtration through Perkin Elmer GF/C filtration plates under vacuum pressure using a 96-well Packard filtration apparatus, followed by washing the filter plates several times with ice cold Assay Buffer. Plates were then dried at 45° C. for a minimum of four hours. Finally, 25 μL of BetaScint scintillation cocktail was added to each well and the plates were counted in a Packard TopCount scintillation counter. In each competition study, test compounds were assayed at 10 concentrations with three replicates at each test concentration. Dose-response curves were constructed to determine IC50 values and these were converted to corresponding Ki values using the Cheng-Prusoff equation.

5-HT2A receptor, sequence (P28223 whole entry): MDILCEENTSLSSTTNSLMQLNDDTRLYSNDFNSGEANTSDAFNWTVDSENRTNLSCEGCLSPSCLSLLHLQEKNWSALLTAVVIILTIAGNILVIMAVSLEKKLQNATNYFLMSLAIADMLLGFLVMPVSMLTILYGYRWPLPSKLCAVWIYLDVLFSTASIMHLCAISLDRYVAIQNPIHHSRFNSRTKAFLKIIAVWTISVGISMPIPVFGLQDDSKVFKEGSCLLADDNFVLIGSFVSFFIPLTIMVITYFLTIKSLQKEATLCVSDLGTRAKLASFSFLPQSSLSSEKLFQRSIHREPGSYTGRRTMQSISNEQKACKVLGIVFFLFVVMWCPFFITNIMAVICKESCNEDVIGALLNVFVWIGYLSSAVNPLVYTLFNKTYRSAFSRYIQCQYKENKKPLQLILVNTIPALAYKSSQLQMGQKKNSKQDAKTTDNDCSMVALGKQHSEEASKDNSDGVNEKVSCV

SMILES | pKi
CCN(CC)CCOc1ccc(NC(=O)C2CC2)cc1-c1c(C)noc1C [Compound 153, N-(4-(2-(diethylamino)ethoxy)-3-(3,5-dimethylisoxazol-4-yl)phenyl)cyclopropanecarboxamide] | 6.96
Cc1noc(C)c1-c1cc(NC(=O)C2CC2)ccc1OCCN1CC2(COC2)C1 [Compound 155, N-[3-(3,5-dimethylisoxazol-4-yl)-4-[2-(2-oxa-6-azaspiro[3.3]heptan-6-yl)ethoxy]phenyl]cyclopropanecarboxamide] | 7.66
Cc1noc(C)c1-c1cc(NC(=O)C2CC2)ccc1OCCN1CCN(C)C(=O)C1 [Compound 156, N-[3-(3,5-dimethylisoxazol-4-yl)-4-[2-(4-methyl-3-oxo-piperazin-1-yl)ethoxy]phenyl]cyclopropanecarboxamide] | 6.84
Cc1noc(C)c1-c1cc(NC(=O)C2CC2)ccc1OCCN1CCC12COC2 [Compound 157, N-[3-(3,5-dimethylisoxazol-4-yl)-4-[2-(6-oxa-1-azaspiro[3.3]heptan-1-yl)ethoxy]phenyl]cyclopropanecarboxamide] | 5.68
Cc1noc(C)c1-c1cc(NC(=O)C2CC2)ccc1OCCN1CCC(CC(=O)O)CC1 [Compound 158, 2-[1-[2-[4-(cyclopropanecarbonylamino)-2-(3,5-dimethylisoxazol-4-yl)phenoxy]ethyl]-4-piperidyl]acetic acid] | 6.63
Cc1noc(C)c1-c1cc(NC(=O)C2CC2)ccc1OCCN1[C@@H]2COC[C@H]1C2 [Compound 159, N-[3-(3,5-dimethylisoxazol-4-yl)-4-[2-[(1R,5S)-3-oxa-6-azabicyclo[3.1.1]heptan-6-yl]ethoxy]phenyl]cyclopropanecarboxamide] | 8.79
Cc1noc(C)c1-c1cc(NC(=O)C2CC2)ccc1OCCN1C[C@@H]2C[C@H]1CO2 [Compound 160, N-(4-(2-((1S,4S)-2-oxa-5-azabicyclo[2.2.1]heptan-5-yl)ethoxy)-3-(3,5-dimethylisoxazol-4-yl)phenyl)cyclopropanecarboxamide] | 8.39
Cc1noc(C)c1-c1cc(NC(=O)c2ccccc2)ccc1OCCN1C[C@@H]2C[C@H]1CO2 [Compound 161, N-[3-(3,5-dimethylisoxazol-4-yl)-4-[2-[(1S,4S)-2-oxa-5-azabicyclo[2.2.1]heptan-5-yl]ethoxy]phenyl]benzamide] | 8.19
Cc1noc(C)c1-c1cc(NC(=O)C2(F)CC2)ccc1OCCN1C[C@@H]2C[C@H]1CO2 [Compound 162, N-[3-(3,5-dimethylisoxazol-4-yl)-4-[2-[(1S,4S)-2-oxa-5-azabicyclo[2.2.1]heptan-5-yl]ethoxy]phenyl]-1-fluoro-cyclopropanecarboxamide] | 8.33
Cc1noc(C)c1-c1cc(NC(=O)c2ccnn2C)ccc1OCCN1C[C@@H]2C[C@H]1CO2 [Compound 163, N-[3-(3,5-dimethylisoxazol-4-yl)-4-[2-[(1S,4S)-2-oxa-5-azabicyclo[2.2.1]heptan-5-yl]ethoxy]phenyl]-2-methyl-pyrazole-3-carboxamide] | 8.17
Cc1noc(C)c1-c1cc(NC(=O)C2CC2)ccc1OCCN1C[C@H]2C[C@H]2C1 [Compound 164, N-[4-[2-[(1R,5S)-3-azabicyclo[3.1.0]hexan-3-yl]ethoxy]-3-(3,5-dimethylisoxazol-4-yl)phenyl]cyclopropanecarboxamide] | 7.86
Cc1noc(C)c1-c1cc(NC(=O)c2cccc(C(F)(F)F)c2)ccc1OCCN1CCOCC1 [Compound 165, N-[3-(3,5-dimethylisoxazol-4-yl)-4-(2-morpholinoethoxy)phenyl]-3-(trifluoromethyl)benzamide] | 8.97
Cc1noc(C)c1-c1cc(NC(=O)C2CC2)ccc1OCCN1CCOCC1 [Compound 166, N-[3-(3,5-dimethylisoxazol-4-yl)-4-(2-morpholinoethoxy)phenyl]cyclopropanecarboxamide] | 8.18
Cc1noc(C)c1-c1cc(NC(=O)C2CC2)ccc1OCCN1CCCC1 [Compound 167, N-[3-(3,5-dimethylisoxazol-4-yl)-4-(2-pyrrolidin-1-ylethoxy)phenyl]cyclopropanecarboxamide] | 8.11
CC(=O)N1CCN(CCOc2ccc(NC(=O)C3CC3)cc2-c2c(C)noc2C)CC1 [Compound 168, N-[4-[2-(4-acetylpiperazin-1-yl)ethoxy]-3-(3,5-dimethylisoxazol-4-yl)phenyl]cyclopropanecarboxamide] | 7.91
Cc1noc(C)c1-c1cc(NC(=O)C2CC2)ccc1OC[C@@H]1CCCCN1 [Compound 170, (S)—N-(3-(3,5-dimethylisoxazol-4-yl)-4-(piperidin-2-ylmethoxy)phenyl)cyclopropanecarboxamide] | 7.30
Cc1noc(C)c1-c1cc(NC(=O)C2CC2)ccc1OC[C@@H]1COCCN1 [Compound 171, (S)—N-(3-(3,5-dimethylisoxazol-4-yl)-4-(morpholin-3-ylmethoxy)phenyl)cyclopropanecarboxamide] | 6.74
Cc1noc(C)c1-c1cc(NC(=O)C2CC2)ccc1OC[C@H]1COCCN1 [Compound 173, (R)—N-(3-(3,5-dimethylisoxazol-4-yl)-4-(morpholin-3-ylmethoxy)phenyl)cyclopropanecarboxamide] | 7.01
Cc1noc(C)c1-c1cc(NC(=O)C2CC2)ccc1OCC1CCN1 (centres unmarked) [Compound 174, N-[4-(azetidin-2-ylmethoxy)-3-(3,5-dimethylisoxazol-4-yl)phenyl]cyclopropanecarboxamide] | 7.32
Cc1noc(C)c1-c1cc(NC(=O)C2CC2)ccc1OC[C@H]1CCCN1 [Compound 175, (R)—N-(3-(3,5-dimethylisoxazol-4-yl)-4-(pyrrolidin-2-ylmethoxy)phenyl)cyclopropanecarboxamide] | 7.38
Cc1noc(C)c1-c1cc(NC(=O)C2CC2)ccc1OC[C@@H]1CCCN1 [Compound 176, (S)—N-(3-(3,5-dimethylisoxazol-4-yl)-4-(pyrrolidin-2-ylmethoxy)phenyl)cyclopropanecarboxamide] | 6.40
Cc1noc(C)c1-c1cc(NC(=O)c2ccnn2C)ccc1OC[C@H]1CCCCN1 [Compound 177, N-[3-(3,5-dimethylisoxazol-4-yl)-4-[[(2R)-2-piperidyl]methoxy]phenyl]-2-methyl-pyridinerazole-3-carboxamide] | 8.37
Cc1noc(C)c1-c1cc(NC(=O)C2CC2)ccc1O[C@H]1CCCNC1 [Compound 178, N-[3-(3,5-dimethylisoxazol-4-yl)-4-[[(3S)-3-piperidyl]oxy]phenyl]cyclopropanecarboxamide] | 6.14
Cc1noc(C)c1-c1cc(NC(=O)C2CC2)ccc1O[C@@H]1CCCNC1 [Compound 179, (R)—N-(3-(3,5-dimethylisoxazol-4-yl)-4-(piperidin-3-yloxy)phenyl)cyclopropanecarboxamide] | 7.07
Cc1noc(C)c1-c1cc(NC(=O)C2CC2)ccc1O[C@H]1CCNC1 [Compound 180, (S)—N-(3-(3,5-dimethylisoxazol-4-yl)-4-(pyrrolidin-3-yloxy)phenyl)cyclopropanecarboxamide] | 6.73
Cc1noc(C)c1-c1cc(NC(=O)C2CC2)ccc1O[C@@H]1CCNC1 [Compound 181, (R)—N-(3-(3,5-dimethylisoxazol-4-yl)-4-(pyrrolidin-3-yloxy)phenyl)cyclopropanecarboxamide] | 8.00
